Measured values taken from ChEMBL document CHEMBL5625174, “Are inhibitors of histone deacetylase 8 (HDAC8) effective in hematological cancers especially acute myeloid leukemia (AML) and acute lymphoblastic leukemia (ALL)?” (Eur J Med Chem, 2023).
Square brackets hold non-standard residues; d marks the D form. Peptide text beside a SMILES is read from it. * marks the point of attachment. Asu = N[C@@H](CCCCCC(=O)O)C(=O)O; β3hL = CC(C)C[C@H](N)CC(=O)O; NHOH = ON*

Tests used:
[1] = tested on: Jurkat; test: cells; format: functional; conditions: Homo sapiens
Description: Growth inhibition of human Jurkat cells

[2] = target: T1, Histone deacetylase 8 (Homo sapiens) (UniProt Q9BY41); test: Inhibition of His-tagged recombinant HDAC8 (unknown origin) at 10 uM using Boc-Lys(triflouroacetyl)-AMC as fluorogenic substrate pre-incubated for 30 mins followed by substrate addition and measured after 30 mins by fluorescence based analysis relative to control; conditions: time 60.0 min
T1 sequence (whole entry): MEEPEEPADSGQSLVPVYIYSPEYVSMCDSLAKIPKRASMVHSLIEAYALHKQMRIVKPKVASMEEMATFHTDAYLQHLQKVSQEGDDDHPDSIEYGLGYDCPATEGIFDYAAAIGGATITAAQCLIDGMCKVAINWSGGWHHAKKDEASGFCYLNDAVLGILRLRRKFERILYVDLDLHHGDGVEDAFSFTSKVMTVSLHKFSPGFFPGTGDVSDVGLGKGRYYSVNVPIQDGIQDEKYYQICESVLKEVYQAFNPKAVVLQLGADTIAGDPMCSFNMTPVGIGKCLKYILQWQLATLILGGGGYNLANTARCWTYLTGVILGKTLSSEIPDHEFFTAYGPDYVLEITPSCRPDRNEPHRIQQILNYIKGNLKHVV

[3] = target: Histone deacetylase 1 (Homo sapiens, UniProt Q13547); test: Inhibition of HDAC1 (unknown origin) using Ac-Leu-Gly-Lys(Ac)-AMC as substrate pre-incubated for 30 mins followed by substrate addition and measured after 30 mins by fluorescence based analysis
Histone deacetylase 1, sequence (Q13547 whole entry): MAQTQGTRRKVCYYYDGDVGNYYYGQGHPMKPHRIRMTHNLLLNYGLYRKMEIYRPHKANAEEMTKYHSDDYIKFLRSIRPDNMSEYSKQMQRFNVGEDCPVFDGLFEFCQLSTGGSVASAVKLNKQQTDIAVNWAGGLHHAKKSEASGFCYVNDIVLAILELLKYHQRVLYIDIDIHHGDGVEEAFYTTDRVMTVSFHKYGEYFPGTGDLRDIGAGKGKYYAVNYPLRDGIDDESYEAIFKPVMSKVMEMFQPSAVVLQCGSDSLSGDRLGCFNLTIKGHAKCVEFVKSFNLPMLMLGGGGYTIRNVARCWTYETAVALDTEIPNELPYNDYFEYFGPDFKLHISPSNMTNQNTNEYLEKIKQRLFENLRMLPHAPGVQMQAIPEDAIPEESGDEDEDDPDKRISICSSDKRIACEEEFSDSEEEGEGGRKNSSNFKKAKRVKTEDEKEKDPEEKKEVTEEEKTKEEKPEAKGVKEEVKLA

[4] = Inhibition of HDAC6 (unknown origin) assessed as release of fluorogenic AMC pre-incubated for 15 mins followed by addition of trypsin and substrate measured after 60 mins microplate reader analysis; parameters: species or system Homo sapiens
[5] = target: T2, Histone deacetylase 8 (Homo sapiens, UniProt Q9BY41); test: Inhibition of human recombinant HDAC8 using fluorogenic HDAC substrate class 2A preincubated for 30 mins followed by substrate addition and measured after 15 mins by fluorogenic assay
T2 sequence (Q9BY41 whole entry): T1 sequence (whole entry)

[6] = tested on: Jurkat E6.1; test: Cytotoxicity against human Jurkat E6.1 cells assessed as reduction in cell viability incubated for 72 hrs by MTT assay; format: functional, cell-based; conditions: Jurkat E6.1, 72 h
[7] = target: Histone deacetylase; test: Inhibition of HDAC (unknown origin) using Fluoro-Substrate Peptide as substrate by fluorescence assay; format: protein assay, Homo sapiens
[8] = target: T2, Histone deacetylase 8; test: Inhibition of HDAC8 (unknown origin) by fluorescence based assay
[9] = tested on: U-937; test: Cytotoxicity against human U-937 cells assessed as reduction in cell viability; format: functional, cell-based
[10] = tested on: Jurkat E6.1; test: Cytotoxicity against human Jurkat E6.1 cells assessed as reduction in cell viability; format: functional, cell-based
[11] = tested on: MOLT-4; test: Cytotoxicity against human MOLT-4 cells assessed as reduction in cell viability; format: functional, cell-based
[12] = target: T2, Histone deacetylase 8; test: Inhibition of human recombinant HDAC8 using AMC-K(Ac)GL as substrate by fluorescence based assay
[13] = target: Histone deacetylase 2 (Homo sapiens, UniProt Q92769); test: Inhibition of HDAC2 (unknown origin) assessed as release of fluorogenic AMC pre-incubated for 15 mins followed by addition of trypsin and substrate measured after 60 mins microplate reader analysis
Histone deacetylase 2, sequence (Q92769 whole entry): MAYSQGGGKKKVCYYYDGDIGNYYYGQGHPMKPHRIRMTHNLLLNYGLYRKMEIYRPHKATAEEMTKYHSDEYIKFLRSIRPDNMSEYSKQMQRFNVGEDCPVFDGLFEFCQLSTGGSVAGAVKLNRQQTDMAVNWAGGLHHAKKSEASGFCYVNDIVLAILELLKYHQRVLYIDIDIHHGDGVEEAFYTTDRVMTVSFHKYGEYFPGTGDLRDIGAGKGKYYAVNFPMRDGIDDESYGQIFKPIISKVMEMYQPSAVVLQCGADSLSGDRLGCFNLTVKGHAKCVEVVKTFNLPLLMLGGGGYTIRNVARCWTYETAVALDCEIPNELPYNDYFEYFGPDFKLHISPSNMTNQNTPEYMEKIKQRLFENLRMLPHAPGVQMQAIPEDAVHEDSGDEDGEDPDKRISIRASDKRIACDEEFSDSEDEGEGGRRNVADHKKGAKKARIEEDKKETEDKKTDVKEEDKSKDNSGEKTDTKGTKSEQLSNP

[14] = target: Histone deacetylase 3 (Homo sapiens, UniProt O15379); test: Inhibition of HDAC3 (unknown origin) assessed as release of fluorogenic AMC pre-incubated for 15 mins followed by addition of trypsin and substrate measured after 60 mins microplate reader analysis
Histone deacetylase 3, sequence (O15379 whole entry): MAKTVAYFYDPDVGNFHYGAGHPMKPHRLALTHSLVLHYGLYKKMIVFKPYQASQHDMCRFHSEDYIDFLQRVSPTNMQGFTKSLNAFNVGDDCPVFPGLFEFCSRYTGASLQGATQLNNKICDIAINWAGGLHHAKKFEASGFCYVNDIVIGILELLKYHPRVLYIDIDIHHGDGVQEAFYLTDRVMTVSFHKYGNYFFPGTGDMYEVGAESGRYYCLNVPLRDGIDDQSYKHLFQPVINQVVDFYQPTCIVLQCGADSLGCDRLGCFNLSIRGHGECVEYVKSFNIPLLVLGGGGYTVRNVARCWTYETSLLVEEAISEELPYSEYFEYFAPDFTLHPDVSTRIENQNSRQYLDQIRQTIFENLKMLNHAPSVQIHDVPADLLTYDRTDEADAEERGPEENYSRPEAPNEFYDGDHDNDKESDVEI

[15] = target: T3, Polyamine deacetylase HDAC10 (Homo sapiens, UniProt Q969S8); test: Inhibition of HDAC10 (unknown origin) assessed as release of fluorogenic AMC pre-incubated for 15 mins followed by addition of trypsin and substrate measured after 60 mins microplate reader analysis
T3 sequence (Q969S8 whole entry): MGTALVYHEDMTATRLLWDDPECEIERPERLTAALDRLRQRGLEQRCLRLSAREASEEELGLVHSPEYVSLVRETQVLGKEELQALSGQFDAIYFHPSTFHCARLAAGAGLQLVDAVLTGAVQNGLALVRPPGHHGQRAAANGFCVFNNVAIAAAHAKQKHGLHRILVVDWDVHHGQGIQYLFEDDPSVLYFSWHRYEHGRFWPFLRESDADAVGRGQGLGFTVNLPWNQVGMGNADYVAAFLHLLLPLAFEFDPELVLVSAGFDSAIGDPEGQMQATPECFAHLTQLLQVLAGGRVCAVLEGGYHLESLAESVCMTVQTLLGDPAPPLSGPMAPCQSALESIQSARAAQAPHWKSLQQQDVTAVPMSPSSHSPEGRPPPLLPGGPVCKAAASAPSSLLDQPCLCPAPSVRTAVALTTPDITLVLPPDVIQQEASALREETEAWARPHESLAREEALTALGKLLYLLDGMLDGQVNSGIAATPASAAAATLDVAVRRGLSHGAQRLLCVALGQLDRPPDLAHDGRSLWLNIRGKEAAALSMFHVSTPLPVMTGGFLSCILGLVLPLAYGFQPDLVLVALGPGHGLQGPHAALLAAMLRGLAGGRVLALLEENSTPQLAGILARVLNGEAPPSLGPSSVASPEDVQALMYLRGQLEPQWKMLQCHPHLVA

[16] = tested on: Jurkat; test: Antiproliferative activity against human Jurkat cells assessed as cell growth inhibition measured after 72 hrs by CCK-8 assay; format: functional
[17] = tested on: HH; test: Antiproliferative activity against human HH cells assessed as cell growth inhibition measured after 72 hrs by CCK-8 assay; format: functional
[18] = tested on: MT4; test: Cytotoxicity against human MT4 cells assessed as inhibition of cell growth incubated for 72 hrs by CCK-8 assay; format: functional
[19] = tested on: HuT78; test: Anti-proliferative activity against human HuT78 cells assessed as growth inhibition incubated for 72 hrs by alamar blue staining based fluorometric assay; format: functional

## O=C(NO)c1cccc(-c2csc(CSc3ccccc3)n2)c1
[1]
  GI50: 2 µM

## CC(C)C[C@H](NC(=O)[C@@H](O)[C@H](N)Cc1ccccc1)C(=O)NCCOCCOCCNC(=O)c1cccc(C(=O)NO)c1
[2]
  inhibition: 64%

## O=C(NO)c1ccc(-c2cccc3ccccc23)cc1
[3]
  IC50: > 100 µM
[4]
  IC50: 55 µM

## CC(C)C[C@H](NC(=O)[C@@H](O)[C@H](N)Cc1ccccc1)C(=O)NCCCCCC(=O)Nc1ccc(NC(=O)CCCCCCC(=O)NO)cc1
[2]
  inhibition: 90%

## O=C1CN[C@@H](Cc2ccccc2)C(=O)N1
[5]
  IC50: 0.0674 µM

## N[C@H](Cc1ccc(Cl)cc1Cl)C(=O)N1Cc2ccccc2C1
[4]
  IC50: > 30 µM

## CCCCCCNC(=O)[C@H](CCC(=O)NO)NC(=O)Cc1ccc(Br)cc1
[6]
  IC50: < 50 µM

## CCCCCCNC(=O)[C@H](CCC(=O)O)NC(=O)Cc1ccc(Cl)cc1
[7]
  IC50: > 10 µM
[8]
  IC50: ≤ 10 µM
[9]
  IC50: ≤ 35 µM
[10]
  IC50: ≤ 35 µM
[11]
  IC50: ≤ 35 µM

## COc1ccc(CNC(=O)[C@H](CCC(=O)O)NC(=O)Cc2ccc(Br)cc2)cc1
[7]
  IC50: > 10 µM
[8]
  IC50: ≤ 10 µM
[9]
  IC50: > 35 µM
[10]
  IC50: < 35 µM
[11]
  IC50: < 35 µM

## CCCCNC(=O)[C@H](CCC(=O)NO)NC(=O)Cc1ccc([N+](=O)[O-])cc1
[6]
  IC50: < 50 µM

## CCCCNC(=O)[C@H](CCC(=O)NO)NC(=O)Cc1ccc(Cl)cc1
[6]
  IC50: < 50 µM

## O=C(O)CC[C@H](NC(=O)Cc1ccc(Cl)cc1)C(=O)NCc1ccccc1
[7]
  IC50: > 10 µM
[8]
  IC50: ≤ 10 µM

## CC(C)C[C@H]1CC(=O)N[C@@H](C)C(=O)N[C@@H](CCCCCC(=O)NO)C(=O)N[C@@H](Cc2c[nH]c3ccccc23)C(=O)N1 (cyclo([Asu](NHOH)W[β3hL]A))
[12]
  IC50: 0.12 µM

## CCCCCCNC(=O)[C@H](CCC(=O)O)NC(=O)Cc1ccc(Br)cc1
[7]
  IC50: > 10 µM
[8]
  IC50: ≤ 10 µM
[9]
  IC50: > 35 µM
[10]
  IC50: ≤ 35 µM
[11]
  IC50: ≤ 35 µM

## CCCCCNC(=O)[C@H](CCC(=O)NO)NC(=O)Cc1ccc(Cl)cc1
[6]
  IC50: < 50 µM

## O=C(O)CC[C@H](NC(=O)Cc1ccc(Br)cc1)C(=O)NCc1ccc(Cl)c(Cl)c1
[7]
  IC50: > 10 µM
[8]
  IC50: ≤ 10 µM
[9]
  IC50: > 35 µM
[10]
  IC50: < 35 µM
[11]
  IC50: < 35 µM

## CSCC[C@H]1NCC(=O)NC1=O
[5]
  IC50: 0.0797 µM

## CCCCNC(=O)[C@H](CCC(=O)NO)NC(=O)Cc1ccc(Cl)cc1Cl
[6]
  IC50: < 50 µM

## CCCCCCNC(=O)[C@H](CCC(=O)O)NC(=O)Cc1ccc(Cl)cc1Cl
[7]
  IC50: > 10 µM
[8]
  IC50: ≤ 10 µM
[9]
  IC50: ≤ 35 µM
[10]
  IC50: ≤ 35 µM
[11]
  IC50: ≤ 35 µM

## O=C(NO)c1cccc(-c2nc(CSc3ccccc3)no2)c1
[12]
  IC50: 0.12 µM

## COc1ccc(/C=C/C(=O)NO)c(-c2ccc(Br)cc2)c1
[3]
  IC50: 4.5 µM
[13]
  IC50: > 20 µM
[14]
  IC50: 4.8 µM
[4]
  IC50: > 20 µM
[15]
  IC50: > 20 µM

## CCCCCNC(=O)[C@H](CCC(=O)NO)NC(=O)Cc1ccccc1
[6]
  IC50: < 50 µM

## O=C(NO)c1cccc(-c2cn(CSc3ccccc3)nn2)c1
[4]
  IC50: 2.4 µM
[16]
  GI50: 2.8 µM
[17]
  GI50: 21 µM
[18]
  GI50: 22 µM
[19]
  GI50: 32 µM

## COc1ccc(/C=C/C(=O)NO)c(-c2ccc(-c3ccccc3)cc2)c1
[4]
  IC50: > 20 µM
